In brackets after ≈: the same amount, converted by molar mass.

One assay deals with Candida. Put plainly: Antimycotic in vivo activity (oral) in mouse candidiasis. Details: species or system mouse (SPF-CF1 type). The settings on record: for action compared with compounds (A) and (B): oral 10-100 mg/kg; for Action (survival on the 6th day post infection): oral 10-100 mg/kg one hour before and seven hours after i.v. inoculation. On the procedure:
Mice of the SPF-CF1 type were intravenously inoculated with 1-2×10^6 logarithmically growing Candida cells, suspended in physiological saline solution. One hour before and seven hours after the inoculation, the animals are in each case orally treated with 10-100 mg/kg of body weight of the preparation. Untreated animals died 3 to 6 days post infection. The survival rate on the 6th day post infection was about 5% in untreated control animals.

For assay [1], the system named is dermatophytes, Blastomycetes and yeasts. Put plainly: Antimycotic in vitro activity, serial dilution test, overall comparison. The format is cell-based. On the procedure: (§1) The in vitro tests were carried out in the serial dilution test using inocula of microorganisms of approximately 5×10^3 to 10^4 microorganisms/ml of substrate. The nutrient medium used was (a) for dermatophytes and Blastomycetes: Sabouraud's test medium (b) for yeasts: meat extract/dextrose broth. The incubation temperature was 28° C. to 37° C., and the incubation period was 24 to 96 hours with yeasts and 96 hours with dermatophytes and Blastomycetes.

A further assay concerns Torulopsis glabrata. Briefly: Antimycotic in vitro activity, serial dilution test, Torulopsis glabrata. Format: cell-based. The settings on record: Nakaseomyces glabratus; 28-37° C., 24 to 96 hours. How it is done:
as §1

The test system of the next assay is Microsporum canis. Put plainly: Antimycotic in vitro activity, serial dilution test, Microsporum canis. The settings on record: Sabouraud's test medium, 28-37° C., 96 hours. Format: cell-based. How it is done:
as §1

In another assay the test system is Aspergillus fumigatus. Put plainly: Antimycotic in vitro activity, serial dilution test, Aspergillus fumigatus. The format is cell-based. The settings on record: 28-37° C. On the procedure: as §1
For another assay, the system named is Trichophyton mentagr. Briefly: Antimycotic in vitro activity, serial dilution test, Trichophyton mentagr. Format: cell-based, Trichophyton mentagrophytes. The settings on record: Sabouraud's test medium, 28-37° C., 96 hours. On the procedure: as §1
In the next assay the test system is Candida albicans. Briefly: Antimycotic in vitro activity, serial dilution test, Candida albicans. The format is cell-based. The settings on record: meat extract/dextrose broth, 28-37° C., 24 to 96 hours. How it is done:
as §1

Another assay deals with mycoses. The settings on record: compare EP-OS No.0,180,850; cited from earlier work.

By MIC is commonly meant the lowest concentration found to suppress growth. Lower therefore signals inhibition by little substance. On to `OC(C=Cc1ccc(Cl)cc1Cl)(Cn1cncn1)C1(Cl)CC1` (stereo not shown) [Compound I-29], for which the “action compared with compounds (A) and (B)” value in the assay on Candida is “better action than the compounds (A) and (B)”. Moreover, in the assay with Candida, the “Action (survival on the 6th day post infection)” value is listed as “+++ (action = 60% survival on the 6th day post infection)”. Moreover, in assay [1], the “antimycotic activity compared with compounds (A) and (B)” value is “better antimycotic activity than the compounds (A) and (B)”. Besides, the minimal inhibitory concentration (MIC) is 8 µg/mL (≈ 22.3 µM) against Torulopsis glabrata; less than 1 µg/mL in the assay on Microsporum canis; less than 1 µg/mL against Aspergillus fumigatus; less than 1 µg/mL in the assay with Trichophyton mentagr.; 16 µg/mL (≈ 44.6 µM) in the assay on Candida albicans.
For the compound `OC(Cn1cncn1)(c1ccc(Cl)cc1)C1(F)CC1` (stereo not shown) [(A), 1-(4-chlorophenyl)-1-(1-fluoro-cycloprop-1-yl)-2-(1,2,4-triazol-1-yl)-ethan-1-ol, reference compound], in the assay with mycoses, the antimycotic properties result is given as “exhibit antimycotic properties”. Also, the MIC against Aspergillus fumigatus, with Trichophyton mentagr. and against Candida albicans was more than 64 µg/mL throughout.
Take `OC(C=Cc1ccc(F)c(Br)c1)(Cn1cncn1)C1(Cl)CC1` (stereo not shown) [Compound I-34]: the “action compared with compounds (A) and (B)” value in the assay with Candida is “better action than the compounds (A) and (B)”. In addition, the “Action (survival on the 6th day post infection)” value in the assay on Candida was “+++ (action = 60% survival on the 6th day post infection)”. Also, in assay [1], the “antimycotic activity compared with compounds (A) and (B)” value was “better antimycotic activity than the compounds (A) and (B)”. Besides, the MIC in the assay on Torulopsis glabrata is 4 µg/mL (≈ 10.3 µM); against Aspergillus fumigatus, less than 1 µg/mL; with Trichophyton mentagr. it was 2 µg/mL (≈ 5.17 µM); with Candida albicans, 4 µg/mL (≈ 10.3 µM).
With `CSC1(C(O)(C=Cc2ccc(Cl)cc2)Cn2cncn2)CC1` (stereo not shown) [Compound I-13], the “action compared with compounds (A) and (B)” value in the assay with Candida was “better action than the compounds (A) and (B)”. In the assay on Candida, the “Action (survival on the 6th day post infection)” value was “+++++ (very good action = 90% survival on the 6th day post infection)”. Also, the “antimycotic activity compared with compounds (A) and (B)” value in assay [1] is “better antimycotic activity than the compounds (A) and (B)”. The minimum inhibitory concentration (MIC) in the assay on Torulopsis glabrata was 2 µg/mL (≈ 5.95 µM); against Microsporum canis, 4 µg/mL (≈ 11.9 µM); in the assay on Aspergillus fumigatus it was less than 1 µg/mL; against Trichophyton mentagr. it was less than 1 µg/mL; in the assay on Candida albicans it was 2 µg/mL (≈ 5.95 µM).
`CSC1(C(O)(CCc2ccc(Cl)cc2)Cn2cncn2)CC1` (stereo not shown) [Compound I-6]: the “action compared with compounds (A) and (B)” value in the assay with Candida was “better action than the compounds (A) and (B)”. Further, in the assay with Candida, the “Action (survival on the 6th day post infection)” value was “+++ (action = 60% survival on the 6th day post infection)”. The “antimycotic activity compared with compounds (A) and (B)” value in assay [1] is “better antimycotic activity than the compounds (A) and (B)”. Also, the MIC with Torulopsis glabrata was 16 µg/mL (≈ 47.4 µM); in the assay with Microsporum canis, 2 µg/mL (≈ 5.92 µM); with Aspergillus fumigatus, less than 1 µg/mL; in the assay on Trichophyton mentagr., less than 1 µg/mL; in the assay with Candida albicans, 4 µg/mL (≈ 11.8 µM).
For `OC(Cn1cncn1)(c1ccc(Cl)cc1)C1(Oc2ccc(Cl)cc2Cl)CC1` (stereo not shown) [(B), 1-(4-chlorophenyl)-1-[1-(2,4-dichlorophenoxy)-cycloprop-1-yl]-2-(1,2,4-triazol-1-yl)-ethan-1-ol, reference compound], the antimycotic properties entry with mycoses is “exhibit antimycotic properties”. Also, the MIC against Torulopsis glabrata is 64 µg/mL (≈ 151 µM); in the assay on Aspergillus fumigatus, more than 64 µg/mL; against Trichophyton mentagr., 64 µg/mL (≈ 151 µM); in the assay on Candida albicans, 16 µg/mL (≈ 37.7 µM).
For the compound `OC(C=Cc1ccc(Br)cc1)(Cn1cncn1)C1(Cl)CC1` (stereo not shown) [Compound I-30], the “action compared with compounds (A) and (B)” value with Candida is “better action than the compounds (A) and (B)”. The “Action (survival on the 6th day post infection)” value in the assay on Candida was “+++++ (very good action = 90% survival on the 6th day post infection)”. In addition, the “antimycotic activity compared with compounds (A) and (B)” value in assay [1] is “better antimycotic activity than the compounds (A) and (B)”. Further, the MIC against Torulopsis glabrata was 4 µg/mL (≈ 10.9 µM); against Microsporum canis it was less than 1 µg/mL; against Aspergillus fumigatus it was less than 1 µg/mL; against Trichophyton mentagr., less than 1 µg/mL; against Candida albicans, 2 µg/mL (≈ 5.43 µM).
Turning to `OC(C=Cc1ccc(OC(F)(F)F)cc1)(Cn1cncn1)C1(Cl)CC1` (stereo not shown) [Compound I-33], in the assay with Candida, the “action compared with compounds (A) and (B)” value was “better action than the compounds (A) and (B)”. Moreover, the “Action (survival on the 6th day post infection)” value in the assay on Candida is “+++++ (very good action = 90% survival on the 6th day post infection)”. For the same compound, the “antimycotic activity compared with compounds (A) and (B)” value in assay [1] was “better antimycotic activity than the compounds (A) and (B)”. Besides, the MIC was less than 1 µg/mL in the assay with Torulopsis glabrata; less than 1 µg/mL in the assay with Microsporum canis; less than 1 µg/mL against Aspergillus fumigatus; less than 1 µg/mL against Trichophyton mentagr.; 8 µg/mL (≈ 21.4 µM) in the assay with Candida albicans.
In the case of `OC(CCc1ccc(Cl)cc1)(Cn1cncn1)C1(Cl)CC1` (stereo not shown) [Compound I-1, 2-(1-chlorocyclopropyl)-4-(4-chlorophenyl)-1-(1,2,4-triazol-1-yl)-butan-2-ol], the “action compared with compounds (A) and (B)” value with Candida was “better action than the compounds (A) and (B)”. Besides, in the assay on Candida, the “Action (survival on the 6th day post infection)” value is reported as “+++ (action = 60% survival on the 6th day post infection)”. Moreover, the “antimycotic activity compared with compounds (A) and (B)” value in assay [1] was “better antimycotic activity than the compounds (A) and (B)”. Besides, the MIC in the assay with Torulopsis glabrata is less than 1 µg/mL; in the assay with Microsporum canis, less than 1 µg/mL; in the assay with Aspergillus fumigatus, less than 1 µg/mL; in the assay on Trichophyton mentagr., less than 1 µg/mL; with Candida albicans it was 2 µg/mL (≈ 6.13 µM).

The values are drawn from patent publication US4925865A, “Antimycotic agents” (Bayer Aktiengesellschaft, priority 1987, dated 1990).
